± gives the standard deviation of the reports.
With `*c1nc(C)nc(N(CCCCCCN(*)c2ccccc2)c2ccccc2)n1` (repeat unit) the glass transition temperature was 67.00 °C.
Compound `*c1ccc(C(=O)NNC(=O)c2ccc(C(=O)NNC(=O)c3ccc(C4(*)OC(=O)c5ccccc54)cc3)cc2)cc1` (repeat unit) has a glass transition temperature of 237.00 °C.
With `*CC(*)(CC(=O)OCCCc1ccccc1)C(=O)OCCCc1ccccc1` (repeat unit) the glass transition temperature was -8.00 °C.
Compound `*CC(*)(C)C(=O)OCCc1ccc(/N=N/c2ccc(OC(F)(F)F)cc2)cc1` (repeat unit) has a glass transition temperature of 209.50 °C.
For `*c1ccc(N2C(=O)c3ccc(Oc4ccc(Sc5ccc(Oc6ccc7c(c6)C(=O)N(*)C7=O)cc5)cc4)cc3C2=O)cc1` (repeat unit), the glass transition temperature was 238.00 °C.
Work on `*c1ccc(Oc2ccc(C(=O)c3cccc(C(=O)c4ccc(Oc5ccc(-c6nc(-c7ccccc7)[nH]c6*)cc5)cc4)c3)cc2)cc1` (repeat unit) yielded a glass transition temperature of 230.00 °C.
`*CC(*)OC(=O)CCCC(=O)c1ccccc1` (repeat unit) gave a glass transition temperature of 45.00 °C.
`*OS(=O)(=O)c1cc(C)c(*)c(C)c1` (repeat unit) gave a glass transition temperature of 153.00 °C.
With `*/C=C/c1ccc(/C=C/[Si](C)(CCC(F)(F)F)c2cccc([Si](*)(C)CCC(F)(F)F)c2)cc1` (repeat unit) the glass transition temperature was 23.40 °C.
With `*c1cccc(Oc2ccc(P(=O)(c3ccccc3)c3ccccc3)c(Oc3cccc(N4C(=O)c5ccc(-c6ccc7c(c6)C(=O)N(*)C7=O)cc5C4=O)c3)c2)c1` (repeat unit) the glass transition temperature was 234.00 °C.
For `*c1cc(C)c(*)s1` (repeat unit), the glass transition temperature was 114.20 °C.
`*CNC(=O)OCc1cocc1COC(=O)NCc1ccc(C(C)(C)c2ccc(*)o2)o1` (repeat unit) gave a glass transition temperature of 25.00 °C.
For `*OC1C(CO)OC(*)C(NC(C)=O)C1O` (repeat unit), the glass transition temperature was 154.60 °C.
For `*c1ccc(C(c2ccc(N3C(=O)c4cc(-c5ccc([Si](C)(C)C)cc5)c(-c5cc6c(cc5-c5ccc([Si](C)(C)C)cc5)C(=O)N(*)C6=O)cc4C3=O)cc2)(C(F)(F)F)C(F)(F)F)cc1` (repeat unit), the glass transition temperature was 365.00 °C.
In the case of `*CC(*)C(=O)OCCCCCC(=O)Oc1ccc(-c2ccc(C#N)cc2)cc1` (repeat unit), the glass transition temperature is reported as 38.00 °C.
`*c1ccc(Oc2ccc(C(=O)c3ccc(Oc4ccc(-c5nc(-c6ccc(-c7nc(*)c(-c8ccccc8)[nH]7)cc6)[nH]c5-c5ccccc5)cc4)cc3)cc2)cc1` (repeat unit) gave a glass transition temperature of 276.00 °C.
Compound `*c1cccc(C(F)(F)C(F)(F)C(*)(F)F)c1` (repeat unit) has a glass transition temperature of 29.00 °C.
`*Oc1ccc(S(=O)(=O)c2ccc(Oc3ccc(Sc4ccc(*)cc4)cc3)cc2)cc1` (repeat unit) showed a glass transition temperature of 175.00 °C.
With `*C1C2CC(C)C(C2)C1*` (repeat unit) the glass transition temperature was 350.00 °C.
`*Nc1cc(NC(=O)c2ccc(C(*)=O)cc2)cc(C(=O)OCCOc2ccc(/C=C/C(=O)c3ccccc3)cc2)c1` (repeat unit) showed a glass transition temperature of 233.00 °C.
With `*CCCCCCCCCCOc1ccc(OC(=O)c2ccc(OCCOCCOCCOc3ccc(C(=O)Oc4ccc(O*)cc4)cc3)cc2)cc1` (repeat unit) the glass transition temperature was 64.00 °C.
With `*C(=O)c1ccc2c(c1)C(=O)N(c1cccc(OP(=O)(Oc3cccc(N4C(=O)c5ccc(*)cc5C4=O)c3)c3ccccc3)c1)C2=O` (repeat unit) the glass transition temperature was 176.50 °C.
For `*c1ccc(Cc2ccc(-c3nc(-c4cccc(-c5nnc(-c6ccccc6)c(*)n5)n4)nnc3-c3ccccc3)cc2)cc1` (repeat unit), the glass transition temperature was 205.00 °C.
With `*c1ccc2c(c1)C(=O)N(c1cc(OCCCCCCCCCCCCCCCC)cc(N3C(=O)c4ccc(C(*)(C(F)(F)F)C(F)(F)F)cc4C3=O)c1)C2=O` (repeat unit) the glass transition temperature was 161.00 °C.
Work on `*CC(C)CC(*)(C)C(=O)OC` (repeat unit) yielded a glass transition temperature of 16.00 °C.
With `*O[Si](C)(C)O[Si](C)(C)O[Si](C)(C)O[Si](C)(C)O[Si](C)(C)OC(C)CCC(*)C` (repeat unit) the glass transition temperature was -106.00 °C.
With `*CC(*)c1ccc(C(C)(O)CCCCC)cc1` (repeat unit) the glass transition temperature was 100.00 °C.
Work on `*c1ccc(Oc2c(C)cc(C(C)(C)c3cc(C)c(Oc4ccc(N5C(=O)c6ccc(Oc7ccc(C8(c9ccc(Oc%10ccc%11c(c%10)C(=O)N(*)C%11=O)cc9)CCC(c9ccccc9)CC8)cc7)cc6C5=O)cc4)c(C)c3)cc2C)cc1` (repeat unit) yielded a glass transition temperature of 232.00 °C.
For `*CC(C)C(*)(C)C` (repeat unit), the glass transition temperature was 37.00 °C.
Compound `*CC(*)c1ccc(B(O[Si](C)(C)C)O[Si](C)(C)C)cc1` (repeat unit) has a glass transition temperature of 84.00 °C.
Compound `*CCOCCOP(=O)(/N=N/c1ccc(C(=O)c2ccc(/N=N/P(=O)(O*)OC)cc2)cc1)OC` (repeat unit) has a glass transition temperature of 33.00 °C.
`*Nc1cccc(NC(=O)c2cc(NC(=O)C(CCSC)N3C(=O)c4ccccc4C3=O)cc(C(*)=O)c2)c1` (repeat unit) showed a glass transition temperature of 196.00 °C.
Work on `*OC(=O)C(C)NC(=O)CCCCCCCC(=O)NC(C)C(=O)OC1COC2C(*)COC12` (repeat unit) yielded a glass transition temperature of 46.00 °C.
With `*c1ccc(N2C(=O)c3ccc(C(=O)c4ccc5c(c4)C(=O)N(c4ccc(-c6nc7cc(Oc8ccc9nc(-c%10ccccc%10)c(*)nc9c8)ccc7nc6-c6ccccc6)cc4)C5=O)cc3C2=O)cc1` (repeat unit) the glass transition temperature was 254.00 °C.
For `*Oc1ccc(C(C)(C)c2ccc(OC(=O)OC3C(C)(C)C(OC(*)=O)C3(C)C)cc2)cc1` (repeat unit), the glass transition temperature was 130.00 °C.
Compound `*CC(*)(C)C(=O)OCCCCCCN(C)c1ccc(/N=N/c2ccc(S(C)(=O)=O)cc2)cc1` (repeat unit) has a glass transition temperature of 100.00 °C.
`*C(=O)c1ccc2c(c1)C(=O)N(c1ccc(Oc3cccc(-c4cc(-c5ccccc5)cc(-c5cccc(Oc6ccc(N7C(=O)c8ccc(*)cc8C7=O)cc6)c5)n4)c3)cc1)C2=O` (repeat unit) showed a glass transition temperature of 260.00 °C.
`*/C=C/C1CC(*)C2C(=O)N(CCCCCCC)C(=O)C12` (repeat unit) showed a glass transition temperature of 59.00 °C.
Work on `*CCCCOc1ccc(C(=O)OCCOC(=O)c2ccc(O*)cc2)cc1` (repeat unit) yielded a glass transition temperature of 53.00 °C.
`*CC(C)(CO*)COCCC#N` (repeat unit) gave a glass transition temperature of -52.00 °C.
`*CC(*)(Cl)C(=O)OCCC(F)(F)C(F)(F)C(F)(F)C(F)(F)C(F)(F)C(F)(F)C(F)(F)C(F)(F)F` (repeat unit) gave a glass transition temperature of 61.00 °C.
Compound `*c1ccc(/C=C(\C#N)c2cc(OCCCCCCCC)c(/C(C#N)=C/c3ccc(N(*)c4ccccc4)cc3)cc2OCCCCCCCC)cc1` (repeat unit) has a glass transition temperature of 78.00 °C.
`*c1ccc(N2C(=O)c3ccc(P(=O)(c4ccccc4)c4ccc5c(c4)C(=O)N(*)C5=O)cc3C2=O)cc1` (repeat unit) gave a glass transition temperature of 366.00 °C.
Compound `*Oc1ccc(CC(NC(=O)Cc2ccc(OC(=O)CC(C)CCC(*)=O)cc2)C(=O)OCCCCCCCC)cc1` (repeat unit) has a glass transition temperature of 30.00 °C.
With `*Oc1ccc(NC(=O)c2ccc([Si](c3ccccc3)(c3ccccc3)c3ccc(C(*)=O)cc3)cc2)cc1` (repeat unit) the glass transition temperature was 235.00 °C.
Compound `*CC(*)(C)C(=O)Oc1c(C)cccc1C` (repeat unit) has a glass transition temperature of 167.00 °C.
With `*CCCCCCSS*` (repeat unit) the glass transition temperature was -74.00 °C.
In the case of `*CC(c1ccccc1)C1C(=O)N(CCCCCCCCCCCC)C(=O)C1*` (repeat unit), the glass transition temperature is reported as 70.00 °C.
`*C(=O)OCCCCCOC(=O)c1ccc(N2C(=O)c3ccc(*)cc3C2=O)cc1` (repeat unit) showed a glass transition temperature of 90.00 °C.
For `*Oc1ccc(C2(c3ccc(OC(*)=O)cc3)c3cc(OC)ccc3-c3ccc([N+](=O)[O-])cc32)cc1` (repeat unit), the glass transition temperature was 294.00 °C.
In the case of `*CCC[Si](C)(C)O[Si](C)(C)CCCN1C(=O)c2ccc(-c3ccc4c(c3)C(=O)N(*)C4=O)cc2C1=O` (repeat unit), the glass transition temperature is reported as 75.00 °C.
`*CCCS*` (repeat unit) gave a glass transition temperature of -53.50 °C.
In the case of `*OCCOC(=O)c1ccc(C(=O)OCCOc2nc(-c3ccc(OCCCC)cc3)nc(*)c2-c2ccc(OC)cc2)cc1` (repeat unit), the glass transition temperature is reported as 94.00 °C.
Compound `*CC(*)(CCC)C(=O)OC` (repeat unit) has a glass transition temperature of 83.50 °C.
With `*CC(*)(C)C(=O)OCCCCCCCCCOc1ccc2cc(C(=O)Oc3ccccc3)ccc2c1` (repeat unit) the glass transition temperature was 18.00 °C.
With `*C(=O)c1ccc2c(c1OCc1ccccc1[N+](=O)[O-])C(=O)N(c1ccc(Oc3ccc(N4C(=O)c5ccc(*)c(OCc6ccccc6[N+](=O)[O-])c5C4=O)cc3)cc1)C2=O` (repeat unit) the glass transition temperature was 198.00 °C.
`*CCCCCCCCCCCCCCCCOC(=O)NCc1ccc(CNC(=O)O*)cc1` (repeat unit) showed a glass transition temperature of 47.00 °C.
`*CCCCCC(=O)NNC(=O)c1ccc(C(=O)NNC(=O)CCCCCOc2ccc(O*)c(C)c2)cc1` (repeat unit) showed a glass transition temperature of 126.00 °C.
In the case of `*Oc1ccc(CC(NC(=O)CCc2ccc(OC(=O)CCC(*)=O)cc2)C(=O)OC)cc1` (repeat unit), the glass transition temperature is reported as 91.50 °C.
In the case of `*Oc1ccc(-c2ccc(OC(*)(Oc3ccccc3)Oc3ccccc3)cc2)cc1` (repeat unit), the glass transition temperature is reported as 112.00 °C.
`*O[Si](C)(C)c1ccc([Si](C)(C)O[SiH](*)CCC(F)(F)F)cc1` (repeat unit) gave a glass transition temperature of -37.00 °C.
For `*C(=O)Nc1cccc(NC(=O)c2ccc3c(c2)C(=O)N(c2ccc(-c4sc(-c5ccc(N6C(=O)c7ccc(*)cc7C6=O)cc5)c(-c5ccccc5)c4-c4ccccc4)cc2)C3=O)c1` (repeat unit), the glass transition temperature was 334.00 °C.
`*Oc1ccc(/C(=C/c2ccc(-c3ccc(/C=C(\c4ccccc4)c4ccc(OC(=O)c5cccc(C(*)=O)c5)cc4)cc3)cc2)c2ccccc2)cc1` (repeat unit) showed a glass transition temperature of 224.00 °C.
In the case of `*Oc1ccc(/C(C)=N/c2ccc(/N=C(\C)c3ccc(Oc4ccc(C(c5ccccc5)(c5ccccc5)c5ccc(*)cc5)cc4)cc3)cc2)cc1` (repeat unit), the glass transition temperature is reported as 178.00 °C.
`*CC(*)(C)C` (repeat unit) [Poly(isobutene)] showed a glass transition temperature of -74 ± 3.6 °C.
`*CC(*)c1c([2H])c([2H])c([2H])c([2H])c1[2H]` (repeat unit) showed a glass transition temperature of 100.00 °C.
`*c1ccc(OCCCOc2ccc(N3C(=O)c4ccc(-c5cccc6c5C(=O)N(*)C6=O)cc4C3=O)cc2)cc1` (repeat unit) showed a glass transition temperature of 237.50 °C.

— the PolyMetriX glass transition set
